From patent US20220242863A1, “COMPOUNDS FOR TREATMENT OF EYE DISORDERS” (SINOPSEE THERAPEUTICS, priority 2019, published 2022)
Read-outs that look alike come from different tables or passages of the source.

Experiments:
[1] = system: BA/F3 cells expressing FIt3; assay: Cell viability by MTS assay (MTS Assay 2); assay type: cell-based; details: Mus musculus, BaF3, concentration required to reduce cell viability to 50%, 20-48 hrs
Experimental: (§1) The effect of the compounds on cell viability were determined using MTS assay. MTS Cell Proliferation Assay Kit is a colorimetric method for sensitive quantification of viable cells in proliferation and cytotoxicity assay. The method is based on the reduction of MTS tetrazolium compound by viable cells to generate a colored formazan product that is soluble in cell culture media. BA/F3 cells expressing the receptor tyrosine kinase (either PDGFR [MTS Assay 1] or FIt3 [MTS Assay 2]) were cultured in standard culture conditions in a 96-well microtiter plate (final volume of 200 μl/well) in the absence or presence of the compound to be tested and were incubated for 20-48 hrs. MTS Reagent (20 μl/well) was added into each well & incubated for 0.5-4 hours at 37° C. in standard culture conditions. Absorbance at 490 nm was recorded using a plate reader.
(§2) Results are shown in FIGS. 2 and 3 and Table 2 (where IC50 indicates the concentration of compound required to reduce cell viability to 50%).
In Table 3: • L represents an IC50 of less than 500 nM • M represents an IC50 of between 500 nM and 5000 nM • H represents an IC50 of more than 5000 nM • For the MTS Assay, the result indicates the concentration of compound required to reduce cell viability to 50%.

[2] = system: BA/F3 cells expressing PDGFR; assay: Cell viability by MTS assay (MTS Assay 1); assay type: cell-based; details: for Activity in MTS cell viability assay compared to imatinib and quizartinib controls: Ba/F3 cells expressing PDGFR, FIG. 2
Experimental: as §1, §2
For the MTS Assay, the result indicates the concentration of compound required to reduce cell viability to 50%.

[3] = molecular target: PDGFR-α (Homo sapiens, UniProt P16234); assay: In vitro kinase assay ([γ-33P]-ATP); assay type: biochemical; details: ATP at apparent Km of the kinase
Experimental: (§3) To determine the inhibitory activity of compounds, in vitro kinase assays were performed on respective enzymes purified from Sf9 insect cells or E. coli as recombinant GST-fusion proteins or His-tagged proteins.

[4] = molecular target: T1, Flt3 (Homo sapiens, UniProt P36888); assay: In vitro kinase assay ([γ-33P]-ATP); assay type: biochemical; details: ATP at apparent Km of the kinase
T1 sequence (P36888 27-993): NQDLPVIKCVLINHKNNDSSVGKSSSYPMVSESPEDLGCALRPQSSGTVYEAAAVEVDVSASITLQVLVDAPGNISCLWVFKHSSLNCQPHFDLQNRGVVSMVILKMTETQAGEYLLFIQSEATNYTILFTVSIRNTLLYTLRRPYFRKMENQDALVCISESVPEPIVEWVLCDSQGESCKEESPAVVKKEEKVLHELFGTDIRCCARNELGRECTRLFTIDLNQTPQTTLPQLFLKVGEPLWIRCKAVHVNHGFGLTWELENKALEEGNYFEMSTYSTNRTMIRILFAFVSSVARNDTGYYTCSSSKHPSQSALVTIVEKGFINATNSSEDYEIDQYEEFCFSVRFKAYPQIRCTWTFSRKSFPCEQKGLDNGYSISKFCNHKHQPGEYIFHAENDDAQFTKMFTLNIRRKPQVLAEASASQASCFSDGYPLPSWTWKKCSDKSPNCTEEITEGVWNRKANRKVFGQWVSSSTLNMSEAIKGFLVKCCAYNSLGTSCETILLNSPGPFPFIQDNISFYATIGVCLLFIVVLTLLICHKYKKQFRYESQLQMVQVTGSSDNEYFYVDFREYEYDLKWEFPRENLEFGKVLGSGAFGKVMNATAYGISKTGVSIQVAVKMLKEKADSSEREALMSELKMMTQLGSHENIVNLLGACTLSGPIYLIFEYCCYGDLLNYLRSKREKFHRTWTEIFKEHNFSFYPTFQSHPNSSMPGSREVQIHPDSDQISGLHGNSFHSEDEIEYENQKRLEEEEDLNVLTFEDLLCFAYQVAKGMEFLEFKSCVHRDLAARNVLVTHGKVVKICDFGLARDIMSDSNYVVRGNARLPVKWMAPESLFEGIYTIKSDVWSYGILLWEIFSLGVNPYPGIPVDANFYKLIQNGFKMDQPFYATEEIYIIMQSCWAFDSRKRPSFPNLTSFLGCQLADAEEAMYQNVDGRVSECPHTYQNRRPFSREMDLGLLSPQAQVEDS
Experimental: as §3

[5] = molecular target: CDK8 (Homo sapiens, UniProt P49336); assay: In vitro kinase assay ([γ-33P]-ATP); assay type: biochemical; details: ATP at apparent Km of the kinase
Experimental: as §3

[6] = molecular target: VEGFR-2 (Homo sapiens, UniProt P35968); assay: In vitro kinase assay ([γ-33P]-ATP); assay type: biochemical; details: ATP at apparent Km of the kinase
Experimental: as §3

[7] = molecular target: CDK19 (Homo sapiens, UniProt Q9BWU1); assay: In vitro kinase assay ([γ-33P]-ATP); assay type: biochemical; details: ATP at apparent Km of the kinase
Experimental: as §3

[8] = molecular target: T2, PDGFRβ (Homo sapiens, UniProt P09619); assay: In vitro kinase assay ([γ-33P]-ATP); assay type: biochemical; details: ATP at apparent Km of the kinase
Experimental: as §3

[9] = molecular target: T2, PDGFRβ; assay: Western blot of PDGFRβ autophosphorylation and Shp2 phosphorylation in HEK293 cell line model; assay type: cell-based; design: expressed in transfected cells; host or cells: HEK293; details: HEK293 cells expressing PDGFRβ, 20 ng/ml PDGF; FIG. 1
Experimental: Human Embryonic kidney cells (HEK293) were constructed to express human PDGFRWT under the control of constitutive CMV promoter. Cells were grown in the presence of 20 ng/ml PDGF (the ligand for the PDGFRβ) to activate the PDGFRβ. Different concentrations of the compounds of Examples 1 and 2 were added to study their effect on the PDGFRβ-mediated signaling. Autophosphorylation of PDGFRβ and Shp2 phosphorylation were monitored by Western blotting and were used as the markers for PDGFRβ signaling. β-Actin was used as an internal control.

[10] = Mus musculus, BaF3, concentration required to reduce cell viability to 50%, BA/F3 cells expressing PDGFR, 20-48 hrs, read-out: IC50 (nM) MTS Assay 1

Chain of CDK8 (P49336 whole entry, species assumed): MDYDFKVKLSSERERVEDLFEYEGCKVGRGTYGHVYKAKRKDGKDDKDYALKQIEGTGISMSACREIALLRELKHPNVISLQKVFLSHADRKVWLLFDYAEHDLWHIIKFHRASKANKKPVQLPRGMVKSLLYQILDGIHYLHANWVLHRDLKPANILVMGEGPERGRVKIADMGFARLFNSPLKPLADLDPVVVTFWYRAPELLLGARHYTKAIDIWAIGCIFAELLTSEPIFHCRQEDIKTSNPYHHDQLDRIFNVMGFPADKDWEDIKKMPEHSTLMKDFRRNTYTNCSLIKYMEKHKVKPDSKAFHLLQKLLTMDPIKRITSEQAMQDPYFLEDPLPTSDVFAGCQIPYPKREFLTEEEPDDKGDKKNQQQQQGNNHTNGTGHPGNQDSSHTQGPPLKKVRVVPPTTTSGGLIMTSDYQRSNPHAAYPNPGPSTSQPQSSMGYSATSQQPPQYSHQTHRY
Chain of CDK8 (P24863 whole entry partner, species assumed): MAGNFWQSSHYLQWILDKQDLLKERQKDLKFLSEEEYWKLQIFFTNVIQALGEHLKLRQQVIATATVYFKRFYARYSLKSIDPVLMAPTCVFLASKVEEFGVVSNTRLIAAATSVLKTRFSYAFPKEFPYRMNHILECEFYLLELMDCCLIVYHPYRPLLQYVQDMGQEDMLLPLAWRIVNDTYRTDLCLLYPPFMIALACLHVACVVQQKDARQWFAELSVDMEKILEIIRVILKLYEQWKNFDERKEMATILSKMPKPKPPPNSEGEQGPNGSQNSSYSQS
Chain of VEGFR-2 (P35968 20-1356): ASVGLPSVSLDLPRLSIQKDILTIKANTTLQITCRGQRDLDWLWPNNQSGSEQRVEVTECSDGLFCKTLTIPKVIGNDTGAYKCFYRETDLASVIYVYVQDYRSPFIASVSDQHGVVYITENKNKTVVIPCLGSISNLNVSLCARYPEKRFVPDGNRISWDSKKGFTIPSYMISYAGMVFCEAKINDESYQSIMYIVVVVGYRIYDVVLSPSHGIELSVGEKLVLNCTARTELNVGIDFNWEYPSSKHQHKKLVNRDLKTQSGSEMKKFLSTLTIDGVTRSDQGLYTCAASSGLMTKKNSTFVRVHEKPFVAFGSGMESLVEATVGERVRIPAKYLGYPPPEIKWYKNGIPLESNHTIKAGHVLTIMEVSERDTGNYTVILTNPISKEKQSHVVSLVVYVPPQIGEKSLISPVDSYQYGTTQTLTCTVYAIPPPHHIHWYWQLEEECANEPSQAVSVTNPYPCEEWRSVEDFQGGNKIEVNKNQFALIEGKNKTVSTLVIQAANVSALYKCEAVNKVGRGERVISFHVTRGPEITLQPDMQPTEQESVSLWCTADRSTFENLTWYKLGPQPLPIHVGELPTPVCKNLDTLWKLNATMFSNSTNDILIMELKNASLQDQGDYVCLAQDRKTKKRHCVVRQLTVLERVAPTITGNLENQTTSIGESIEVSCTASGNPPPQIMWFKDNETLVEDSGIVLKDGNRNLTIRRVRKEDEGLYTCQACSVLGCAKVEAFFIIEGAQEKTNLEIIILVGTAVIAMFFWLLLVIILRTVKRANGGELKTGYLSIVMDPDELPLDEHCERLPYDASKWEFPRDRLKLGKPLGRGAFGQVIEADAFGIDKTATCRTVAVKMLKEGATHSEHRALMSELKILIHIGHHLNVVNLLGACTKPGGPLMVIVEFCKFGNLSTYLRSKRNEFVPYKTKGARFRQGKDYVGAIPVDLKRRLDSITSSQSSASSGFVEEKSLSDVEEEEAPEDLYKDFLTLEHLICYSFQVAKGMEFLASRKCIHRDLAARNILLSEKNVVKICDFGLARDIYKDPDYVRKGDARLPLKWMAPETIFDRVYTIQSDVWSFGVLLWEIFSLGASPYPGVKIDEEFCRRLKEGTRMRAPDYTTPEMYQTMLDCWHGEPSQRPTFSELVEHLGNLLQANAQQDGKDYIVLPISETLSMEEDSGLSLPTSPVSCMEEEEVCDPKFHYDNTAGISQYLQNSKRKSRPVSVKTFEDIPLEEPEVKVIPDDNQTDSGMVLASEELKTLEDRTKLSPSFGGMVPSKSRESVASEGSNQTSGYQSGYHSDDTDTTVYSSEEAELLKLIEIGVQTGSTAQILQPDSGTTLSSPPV
Chain of PDGFR-α (P16234 24-1089): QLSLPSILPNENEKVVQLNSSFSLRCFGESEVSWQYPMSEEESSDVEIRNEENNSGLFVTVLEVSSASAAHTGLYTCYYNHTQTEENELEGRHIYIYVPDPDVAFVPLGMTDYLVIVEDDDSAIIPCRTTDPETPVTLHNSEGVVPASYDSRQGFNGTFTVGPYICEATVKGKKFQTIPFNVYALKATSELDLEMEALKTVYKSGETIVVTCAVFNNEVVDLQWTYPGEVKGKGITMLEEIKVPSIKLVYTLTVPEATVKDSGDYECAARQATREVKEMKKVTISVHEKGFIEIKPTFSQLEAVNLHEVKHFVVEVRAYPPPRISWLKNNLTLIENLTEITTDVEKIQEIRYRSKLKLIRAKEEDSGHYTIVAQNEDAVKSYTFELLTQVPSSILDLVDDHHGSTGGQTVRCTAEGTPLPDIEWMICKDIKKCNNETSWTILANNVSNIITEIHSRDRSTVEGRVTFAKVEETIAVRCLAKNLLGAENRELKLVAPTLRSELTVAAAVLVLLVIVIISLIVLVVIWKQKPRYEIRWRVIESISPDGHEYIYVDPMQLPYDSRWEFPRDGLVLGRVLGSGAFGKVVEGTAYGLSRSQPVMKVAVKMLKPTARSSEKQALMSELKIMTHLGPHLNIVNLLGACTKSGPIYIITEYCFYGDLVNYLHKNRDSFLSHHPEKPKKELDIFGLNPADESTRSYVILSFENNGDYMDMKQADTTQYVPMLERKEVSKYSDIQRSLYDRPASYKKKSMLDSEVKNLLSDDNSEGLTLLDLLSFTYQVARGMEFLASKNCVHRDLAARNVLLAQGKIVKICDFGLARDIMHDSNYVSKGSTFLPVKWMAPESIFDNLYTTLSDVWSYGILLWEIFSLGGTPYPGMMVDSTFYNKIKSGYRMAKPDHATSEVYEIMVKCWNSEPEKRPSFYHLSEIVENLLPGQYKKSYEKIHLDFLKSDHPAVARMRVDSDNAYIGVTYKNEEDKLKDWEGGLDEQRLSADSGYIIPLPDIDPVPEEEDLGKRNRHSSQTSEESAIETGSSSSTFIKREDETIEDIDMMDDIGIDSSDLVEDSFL
T2 sequence (P09619 33-1106): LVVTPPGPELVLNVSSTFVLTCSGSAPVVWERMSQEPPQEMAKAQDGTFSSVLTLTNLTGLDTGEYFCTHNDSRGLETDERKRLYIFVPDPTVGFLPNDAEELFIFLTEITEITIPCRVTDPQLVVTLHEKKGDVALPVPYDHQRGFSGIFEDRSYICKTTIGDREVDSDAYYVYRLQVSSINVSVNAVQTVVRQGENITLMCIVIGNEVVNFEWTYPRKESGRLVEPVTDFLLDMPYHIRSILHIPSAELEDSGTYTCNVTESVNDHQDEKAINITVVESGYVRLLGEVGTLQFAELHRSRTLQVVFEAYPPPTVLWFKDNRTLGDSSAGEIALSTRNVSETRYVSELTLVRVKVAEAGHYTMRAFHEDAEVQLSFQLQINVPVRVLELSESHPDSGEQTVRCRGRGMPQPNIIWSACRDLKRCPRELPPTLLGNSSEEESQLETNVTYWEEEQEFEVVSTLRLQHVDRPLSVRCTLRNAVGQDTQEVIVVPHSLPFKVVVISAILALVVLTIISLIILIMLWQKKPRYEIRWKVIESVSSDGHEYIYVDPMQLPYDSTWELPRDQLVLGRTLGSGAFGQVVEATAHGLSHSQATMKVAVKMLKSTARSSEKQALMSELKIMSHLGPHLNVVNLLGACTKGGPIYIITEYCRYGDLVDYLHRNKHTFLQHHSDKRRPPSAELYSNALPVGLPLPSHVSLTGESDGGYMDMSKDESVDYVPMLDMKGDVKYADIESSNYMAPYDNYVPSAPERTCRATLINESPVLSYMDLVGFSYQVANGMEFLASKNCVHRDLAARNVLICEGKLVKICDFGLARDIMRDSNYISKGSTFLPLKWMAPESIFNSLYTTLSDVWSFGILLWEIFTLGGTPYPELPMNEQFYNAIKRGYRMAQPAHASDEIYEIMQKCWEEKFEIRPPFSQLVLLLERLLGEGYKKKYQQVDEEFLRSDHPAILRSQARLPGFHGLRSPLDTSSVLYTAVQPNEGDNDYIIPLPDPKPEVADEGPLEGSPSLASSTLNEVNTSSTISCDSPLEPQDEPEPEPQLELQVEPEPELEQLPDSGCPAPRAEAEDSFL
Chain of CDK19 (Q9BWU1 whole entry, species assumed): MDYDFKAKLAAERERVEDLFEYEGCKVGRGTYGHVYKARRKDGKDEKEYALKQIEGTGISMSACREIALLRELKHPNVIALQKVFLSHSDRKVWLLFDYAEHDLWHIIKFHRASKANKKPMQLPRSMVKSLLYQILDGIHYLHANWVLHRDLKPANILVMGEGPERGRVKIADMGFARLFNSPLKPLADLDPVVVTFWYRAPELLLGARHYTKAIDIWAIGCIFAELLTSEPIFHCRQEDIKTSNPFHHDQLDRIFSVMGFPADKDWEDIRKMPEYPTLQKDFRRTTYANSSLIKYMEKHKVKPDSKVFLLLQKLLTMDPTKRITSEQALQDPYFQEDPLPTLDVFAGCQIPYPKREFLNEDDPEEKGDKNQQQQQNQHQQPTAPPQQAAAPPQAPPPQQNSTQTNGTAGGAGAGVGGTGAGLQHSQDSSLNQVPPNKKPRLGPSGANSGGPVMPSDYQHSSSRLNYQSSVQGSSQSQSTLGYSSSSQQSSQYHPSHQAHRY
Chain of CDK19 (P24863 whole entry partner, species assumed): as the sequence (P24863 whole entry partner, species assumed) above

Row | Structure (SMILES) | IC50 [1] | IC50 [3] | IC50 [4] | IC50 [5] | IC50 [6] | IC50 [7] | IC50 [8] | IC50 [2, 10] | Activity in MTS cell viability assay compared to imatinib and quizartinib controls [2] | IC50 ([2]; Mus musculus, BaF3, read-out: IC50 (nM) MTS Assay 1) | Inhibition of PDGFRβ signaling (PDGFRβ autophosphorylation, Shp2 phosphorylation) [9] | IC50 ([2]; concentration required to reduce cell viability to 50%, BA/F3 cells expressing PDGFR, 20-48 hrs, read-out: IC50 (nM) MTS Assay 1)
1 | Cn1nc(NC(=O)COc2ccc(-c3cnc4ccccn34)cn2)cc1C(F)(F)F [Example 1] | < 500 nM | < 500 nM | < 500 nM | < 500 nM | < 500 nM | < 500 nM | < 500 nM |  | improved activity when compared to the imatinib and quizartinib controls | < 500 nM | able to inhibit PDGFRβ signaling | 
2 | Cc1ccc(NC(=O)COc2ccc(-c3cnc4ccccn34)cn2)cc1C(F)(F)F [Example 2] |  |  |  |  |  |  |  |  |  |  | able to inhibit PDGFRβ signaling | 
3 | Cc1cnc(NC(=O)COc2ccc(-c3cnc4cnccn34)cn2)cc1C(F)(F)F [Example 3] |  |  |  |  |  |  |  |  | improved activity when compared to the imatinib and quizartinib controls |  |  | 
4 | Cn1nc(NC(=O)COc2ccc(-c3cnc4cnccn34)cn2)cc1C(F)(F)F [Example 9] |  |  |  | < 500 nM |  | < 500 nM |  |  |  |  |  | < 500 nM
5 | O=C(Nc1cc(C(F)(F)F)c(Cl)cn1)C1(Oc2ccc(-c3cnc4cnccn34)cn2)CC1 [Example 12] |  | > 5000 nM | > 5000 nM | > 5000 nM | > 5000 nM | > 5000 nM | > 5000 nM |  |  |  |  | 
6 | Cc1ccc(NC(=O)CNc2ccc(-c3cnc4cnccn34)cc2)cc1C(F)(F)F [Example 15] | < 500 nM | < 500 nM | < 500 nM | < 500 nM | < 500 nM | < 500 nM | < 500 nM |  |  |  |  | 

The next lines start with results.

Row | IC50 [1] | IC50 [3] | IC50 [4] | IC50 [5] | IC50 [6] | IC50 [7] | IC50 [8] | IC50 [2, 10] | Structure (SMILES) | Activity in MTS cell viability assay compared to imatinib and quizartinib controls [2] | IC50 ([2]; Mus musculus, BaF3, read-out: IC50 (nM) MTS Assay 1) | Inhibition of PDGFRβ signaling (PDGFRβ autophosphorylation, Shp2 phosphorylation) [9] | IC50 ([2]; concentration required to reduce cell viability to 50%, BA/F3 cells expressing PDGFR, 20-48 hrs, read-out: IC50 (nM) MTS Assay 1)
7 | < 500 nM |  |  |  |  |  |  | 500 to 5000 nM | Cn1nc(NC(=O)COc2ccc(-c3cnc4cnccn34)c(F)n2)cc1C(F)(F)F [Example 6] |  |  |  | 
8 | < 500 nM |  |  |  |  |  |  | < 500 nM | Cc1ccc(NC(=O)COc2ccc(-c3cnc4cnccn34)c(F)n2)cc1C(F)(F)F [Example 7] |  |  |  | 
9 |  |  |  |  |  |  |  | < 500 nM | Cc1ccc(NC(=O)COc2ccc(-c3cnc4ccc(-c5ccc(C(=O)N6CCOCC6)cc5)cn34)cc2)cc1C(F)(F)F [Example 10] |  |  |  | 
10 |  | 500 to 5000 nM | > 5000 nM | 500 to 5000 nM | 500 to 5000 nM | 500 to 5000 nM | 500 to 5000 nM |  | CC(Oc1ccc(-c2cnc3cnccn23)cn1)C(=O)Nc1cc(C(F)(F)F)c(Cl)cn1 (stereo not drawn) [Example 13] |  |  |  | 
11 |  | > 5000 nM | > 5000 nM | 500 to 5000 nM | > 5000 nM | 500 to 5000 nM | > 5000 nM |  | Cc1ccc(NC(=O)c2ccc(Nc3cnc4cnccn34)cc2)cc1C(F)(F)F [Example 14] |  |  |  | 
12 |  | < 500 nM | < 500 nM | < 500 nM | < 500 nM | < 500 nM | < 500 nM |  | O=C(CNc1ccc(-c2cnc3cnccn23)cc1)Nc1cc(C(F)(F)F)c(Cl)cn1 [Example 16] |  |  |  | 
13 |  | < 500 nM | < 500 nM | < 500 nM | < 500 nM | < 500 nM | < 500 nM |  | Cn1nc(NC(=O)CNc2ccc(-c3cnc4cnccn34)cc2)cc1C(F)(F)F [Example 17] |  |  |  | 
14 |  | < 500 nM | < 500 nM | < 500 nM | < 500 nM | < 500 nM | < 500 nM |  | Cn1nc(NC(=O)CNc2ccc(-c3cnc4cnccn34)c(F)c2)cc1C(F)(F)F [Example 18] |  |  |  | 
15 |  | < 500 nM | < 500 nM | < 500 nM | < 500 nM | < 500 nM | < 500 nM |  | Cn1nc(NC(=O)COc2ccc(-c3cnn4cccnc34)cc2)cc1C(F)(F)F [Example 19] |  |  |  | 
